Legend:
ΔF508-CFTR [1] = target: T1, ΔF508-CFTR (Homo sapiens, UniProt P13569, DEL508-508); assay: CFTR cell surface levels using HRP-tagged ΔF508-CFTR expressing CFBE cells, in the presence of a co-corrector; type: cell-based; conditions: HRP-tagged ΔF508-CFTR CFBE cells, in the presence of 3 μM co-corrector; for EC50: read-out: EC50
T1 construct: host or cells: CFBE41o-, doxycycline-inducible
How it was run: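 Chemiluminescent read-out of surface HRP (15 min, dark) after PBS washes. Activity is normalized as 100×(sample−DMSO)/(3 μM co-corrector alone−DMSO).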

ΔF508-CFTR [2] = target: T1, ΔF508-CFTR; assay: CFTR cell surface levels using HRP-tagged ΔF508-CFTR expressing CFBE cells, intrinsic corrector capacity; type: cell-based; set-up: % Activation: concentration or dose not given beside the values; conditions: HRP-tagged ΔF508-CFTR expressing CFBE41o- cells, compound alone (intrinsic corrector capacity), 20 hours at 33° C.; for EC50: read-out: EC50
How it was run: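 Read-out: chemiluminescent HRP activity of ECL4-HRP-tagged ΔF508-CFTR at the cell surface, 15 min substrate in dark. Normalized as 100×(sample−DMSO)/(positive control−DMSO).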

T1 sequence (P13569 with tags, fused parts or gaps DEL508-508): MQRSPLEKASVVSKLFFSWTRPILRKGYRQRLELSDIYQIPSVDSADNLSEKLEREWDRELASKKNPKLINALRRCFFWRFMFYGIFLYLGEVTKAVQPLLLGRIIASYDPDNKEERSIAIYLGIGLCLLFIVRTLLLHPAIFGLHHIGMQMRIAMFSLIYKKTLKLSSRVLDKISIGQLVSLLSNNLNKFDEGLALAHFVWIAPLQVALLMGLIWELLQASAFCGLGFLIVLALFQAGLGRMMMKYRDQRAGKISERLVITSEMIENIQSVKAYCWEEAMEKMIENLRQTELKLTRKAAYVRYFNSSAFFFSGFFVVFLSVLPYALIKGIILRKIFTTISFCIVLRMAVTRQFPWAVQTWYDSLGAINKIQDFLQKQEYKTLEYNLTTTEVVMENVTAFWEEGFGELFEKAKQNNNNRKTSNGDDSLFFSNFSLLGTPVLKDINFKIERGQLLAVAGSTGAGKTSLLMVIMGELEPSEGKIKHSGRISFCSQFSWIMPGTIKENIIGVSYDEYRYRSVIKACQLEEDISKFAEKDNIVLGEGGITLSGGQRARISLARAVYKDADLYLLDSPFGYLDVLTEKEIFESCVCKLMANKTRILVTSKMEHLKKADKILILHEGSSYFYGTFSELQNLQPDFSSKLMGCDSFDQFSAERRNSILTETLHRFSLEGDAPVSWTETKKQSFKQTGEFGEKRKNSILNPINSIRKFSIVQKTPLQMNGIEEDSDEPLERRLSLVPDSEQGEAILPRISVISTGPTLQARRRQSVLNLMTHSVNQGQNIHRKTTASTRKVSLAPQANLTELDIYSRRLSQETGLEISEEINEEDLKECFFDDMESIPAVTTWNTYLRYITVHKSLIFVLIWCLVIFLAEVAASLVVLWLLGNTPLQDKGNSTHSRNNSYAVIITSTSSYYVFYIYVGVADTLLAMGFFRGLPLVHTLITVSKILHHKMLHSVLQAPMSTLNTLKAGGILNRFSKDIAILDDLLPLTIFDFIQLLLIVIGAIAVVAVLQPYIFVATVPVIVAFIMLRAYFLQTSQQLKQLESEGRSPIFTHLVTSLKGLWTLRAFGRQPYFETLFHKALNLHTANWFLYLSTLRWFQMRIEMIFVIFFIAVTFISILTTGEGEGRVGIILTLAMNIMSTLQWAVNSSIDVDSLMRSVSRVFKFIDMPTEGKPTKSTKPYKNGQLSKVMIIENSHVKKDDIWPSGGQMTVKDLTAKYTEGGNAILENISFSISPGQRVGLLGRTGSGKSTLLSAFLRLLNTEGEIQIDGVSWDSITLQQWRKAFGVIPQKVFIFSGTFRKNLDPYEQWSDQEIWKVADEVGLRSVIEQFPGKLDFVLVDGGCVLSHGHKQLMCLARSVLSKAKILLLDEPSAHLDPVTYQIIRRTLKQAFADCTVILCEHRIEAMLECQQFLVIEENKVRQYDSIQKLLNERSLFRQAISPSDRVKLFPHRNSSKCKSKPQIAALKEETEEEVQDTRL

Row | SMILES | % Activation (ΔF508-CFTR [1]) [%] | EC50 (ΔF508-CFTR [1]) [nM] | % Activation (ΔF508-CFTR [2]) [%] | EC50 (ΔF508-CFTR [2]) [nM]
1 | O=C(NS(=O)(=O)N1CCCC1)c1cc(N2CCC(N3CCOCC3)CC2)c2c(C3CCC3)nn(-c3ccc(F)cc3)c2n1 [Compound 485, 3-cyclobutyl-1-(4-fluorophenyl)-4-[4-(morpholin-4-yl)piperidin-1-yl]-N-(pyrrolidine-1-sulfonyl)-1H-pyrazolo[3,4-b]pyridine-6-carboxamide] | 399.1 | 90.2 | 218.55 | 155
2 | CS(=O)(=O)NC(=O)c1cc(N2CCC3(CCCCC3)CC2)c2c(C3CCC3)nn(-c3ccccc3)c2n1 [Compound 222, 4-(3-azaspiro[5.5]undecan-3-yl)-3-cyclobutyl-N-(methanesulfonyl)-1-phenyl-1H-pyrazolo[3,4-b]pyridine-6-carboxamide] | 247.3 | 1790 | 65.685 | 1420
3 | CC1(S(=O)(=O)NC(=O)c2cc(N3CCC(N4CCOCC4)CC3)c3c(C4CCC4)nn(-c4ccccc4)c3n2)CC1 [Compound 435, 3-cyclobutyl-N-(1-methylcyclopropane-1-sulfonyl)-4-[4-(morpholin-4-yl)piperidin-1-yl]-1-phenyl-1H-pyrazolo[3,4-b]pyridine-6-carboxamide] | 474.8 | 82.8 | 269.9 | 136
4 | CC(=O)N1CCCN(S(=O)(=O)NC(=O)c2cc(OCC3CCOCC3)c3c(C4CCC4)nn(-c4ccccc4)c3n2)CC1 [Compound 357, N-(4-acetyl-1,4-diazepane-1-sulfonyl)-3-cyclobutyl-4-[(oxan-4-yl)methoxy]-1-phenyl-1H-pyrazolo[3,4-b]pyridine-6-carboxamide] | 229.8 | 130 | 72.83 | 115
5 | CN(C)S(=O)(=O)NC(=O)c1cc(N2CCC(N3CCN(C4COC4)CC3)CC2)c2c(C3CCC3)nn(-c3ccc(F)cc3)c2n1 [Compound 615, 3-cyclobutyl-N-(dimethylsulfamoyl)-1-(4-fluorophenyl)-4-{4-[4-(oxetan-3-yl)piperazin-1-yl]piperidin-1-yl}-1H-pyrazolo[3,4-b]pyridine-6-carboxamide] | 450.85 | 130 | 255.3 | 482
6 | CC(C)Oc1nn(C2CCCCC2)c2nc(C(=O)NS(=O)(=O)N(C)C)cc(-c3ccc(CN4CCCC4)cc3)c12 [Compound 444, 1-cyclohexyl-N-(dimethylsulfamoyl)-3-[(propan-2-yl)oxy]-4-{4-[(pyrrolidin-1-yl)methyl]phenyl}-1H-pyrazolo[3,4-b]pyridine-6-carboxamide] | 361.3 | 235 | 162.5 | 345
7 | CN(C)S(=O)(=O)NC(=O)c1cc(C2CCN(CC3CC3)CC2)c2c(C3CCC3)nn(-c3ccc(F)cc3)c2n1 [Compound 613, 3-cyclobutyl-4-[1-(cyclopropylmethyl)piperidin-4-yl]-N-(dimethylsulfamoyl)-1-(4-fluorophenyl)-1H-pyrazolo[3,4-b]pyridine-6-carboxamide] | 152.9 | ≥ 10000 | 30.09 | –
8 | CC(C)c1nn(-c2ccc(F)cc2)c2nc(C(=O)NS(C)(=O)=O)cc(OCCCN(C)C)c12 [Compound 299, 4-[3-(dimethylamino)propoxy]-1-(4-fluorophenyl)-N-(methanesulfonyl)-3-(propan-2-yl)-1H-pyrazolo[3,4-b]pyridine-6-carboxamide] | 267.2 | 2510 | 81.41 | 3330
9 | Cc1cc(-n2nc(C3CCC3)c3c(N4CCC(N5CCOCC5)CC4)cc(C(=O)NS(=O)(=O)N(C)C)nc32)ccc1F [Compound 511, 3-cyclobutyl-N-(dimethylsulfamoyl)-1-(4-fluoro-3-methylphenyl)-4-[4-(morpholin-4-yl)piperidin-1-yl]-1H-pyrazolo[3,4-b]pyridine-6-carboxamide] | 432.95 | 78.9 | 248.55 | 88.3
10 | CN(C)S(=O)(=O)NC(=O)c1cc(N2CCC(N3CCOCC3)CC2)c2c(C3CCC3)nn(-c3ccc(C(F)(F)F)cc3)c2n1 [Compound 500, 3-cyclobutyl-N-(dimethylsulfamoyl)-4-[4-(morpholin-4-yl)piperidin-1-yl]-1-[4-(trifluoromethyl)phenyl]-1H-pyrazolo[3,4-b]pyridine-6-carboxamide] | 330.05 | 84.2 | 137.5 | 173
11 | CS(=O)(=O)NC(=O)c1cc(N2CCC(N3CCOCC3)CC2)c2c(C3CCC3)nn(-c3cccc(F)c3)c2n1 [Compound 515, 3-cyclobutyl-1-(3-fluorophenyl)-N-(methanesulfonyl)-4-[4-(morpholin-4-yl)piperidin-1-yl]-1H-pyrazolo[3,4-b]pyridine-6-carboxamide] | 479.2 | 52.9 | 287.1 | 179
12 | CN(C1CCOCC1)S(=O)(=O)NC(=O)c1cc(N2CCC(N3CCOCC3)CC2)c2c(C3CCC3)nn(-c3ccc(F)cc3)c2n1 [Compound 579, 3-cyclobutyl-1-(4-fluorophenyl)-N-[methyl(oxan-4-yl)sulfamoyl]-4-[4-(morpholin-4-yl)piperidin-1-yl]-1H-pyrazolo[3,4-b]pyridine-6-carboxamide] | 420.5 | 319 | 205 | 376
13 | N#CC1CCN(S(=O)(=O)NC(=O)c2cc(N3CCC(N4CCOCC4)CC3)c3c(C4CCC4)nn(-c4ccc(F)cc4)c3n2)CC1 [Compound 505, N-(4-cyanopiperidine-1-sulfonyl)-3-cyclobutyl-1-(4-fluorophenyl)-4-[4-(morpholin-4-yl)piperidin-1-yl]-1H-pyrazolo[3,4-b]pyridine-6-carboxamide] | 389 | 54.1 | 187.5 | 92.6
14 | COc1cccc(-n2nc(C3CCC3)c3c(N4CCC(N5CCOCC5)CC4)cc(C(=O)NS(=O)(=O)N(C)C)nc32)c1 [Compound 499, 3-cyclobutyl-N-(dimethylsulfamoyl)-1-(3-methoxyphenyl)-4-[4-(morpholin-4-yl)piperidin-1-yl]-1H-pyrazolo[3,4-b]pyridine-6-carboxamide] | 439.6 | 71.2 | 287.5 | 186
15 | CC(c1ccc(-c2cc(C(=O)NS(=O)(=O)N(C)C)nc3c2c(C2CCC2)nn3C2CCCCC2)cc1)N1CCOCC1 (stereo not drawn) [Compound 543, 3-cyclobutyl-1-cyclohexyl-N-(dimethylsulfamoyl)-4-{4-[1-(morpholin-4-yl)ethyl]phenyl}-1H-pyrazolo[3,4-b]pyridine-6-carboxamide] | 336.1 | 139 | 115.7 | 238
16 | COC1CCN(S(=O)(=O)NC(=O)c2cc(N3CCC(N4CCOCC4)CC3)c3c(C4CCC4)nn(-c4ccc(F)cc4)c3n2)C1 (stereo not drawn) [Compound 538, 3-cyclobutyl-1-(4-fluorophenyl)-N-(3-methoxypyrrolidine-1-sulfonyl)-4-[4-(morpholin-4-yl)piperidin-1-yl]-1H-pyrazolo[3,4-b]pyridine-6-carboxamide] | 427.95 | 358 | 228.9 | 2070

Reference: patent US10259810B2, “N-sulfonylated pyrazolo[3,4-b]pyridin-6-carboxamides and method of use” (AbbVie S.à.r.l., priority 2015, dated 2019)
